Source: patent US20260098027A1, “PHARMACEUTICALLY ACCEPTABLE SALT AND CRYSTAL FORM OF TETRAHYDRONAPHTHALENE DERIVATIVE, AND PREPARATION METHOD” (JIANGSU HENGRUI PHARMACEUTICALS CO., LTD., priority 2022, published 2026)
pIC50: −log10 of the molar value. Structures can show the parent of a compound that is named as a salt. One block for each compound: values may come before it.

What was measured:
MCF7 cells = test: Inhibitory effect on MCF7 cell proliferation (CellTiter-Glo); format: cell-based; details: Homo sapiens, 144 h, 6 days incubation, luminescence cell viability readout
Method: MCF7 cells (TCHu74, National Collection of Authenticated Cell Cultures) were cultured in an MEM (GE Healthcare, SH30024.01) complete culture medium containing 10% fetal bovine serum. On day 1 of the experiment, MCF7 cells were seeded into a 96-well plate at a density of 3,000 cells/well using an MEM culture medium containing 2% fetal bovine serum, with each well containing 135 μL of cell suspension. The plate was incubated overnight in a 37° C., 5% CO2 cell incubator. The next day, the test compound, at different concentrations in the culture medium, was added at 15 μL/well. The final concentrations of the compound were 9 concentration points obtained by 4-fold serial dilution from 1000 nM. A blank control containing 0.5% DMSO was set up. The plate was incubated in a 37° C., 5% CO2 cell incubator for 6 days. On day 8, the 96-well cell culture plate was taken out, and CellTiter-Glo® Luminescent Cell Viability Assay (Promega, G7573) was added at 75 µL/well. After the plate was left at room temperature for 10 min, luminescence signal values were measured using a multilabel microplate reader (PerkinElmer, VICTOR 3).

[1] = test system: MCF-7 (Y537S) human breast cancer cells xenograft tumors; test: Efficacy against MCF-7 (Y537S) xenograft tumors in BEIGE SCID mice; format: in vivo; details: for Mean tumor volume D0: D0 (day of grouping, before dosing)
Method: To evaluate the inhibitory effect of compound I on the growth of xenograft tumors of MCF-7 (Y537S) human breast cancer cells in BEIGE SCID mice.
Compound I. A 2% Tween 80+98% PEG-400 solution was used.
Test animals: female BEIGE SCID mice, purchased from Beijing Vital River Laboratory Animal Technology Co., Ltd. (certificate No. SCXK (Beijing) 2016-0006), weighing about 19 g on purchase.
Housing conditions: 5 animals/cage, a 12/12-hour light/dark cycle, a constant temperature of 23±1° C. with humidity at 50 to 60%, ad libitum access to food and water.
After acclimatization, BEIGE SCID mice were grouped as follows:
MCF-7 (Y537S) cells in the logarithmic growth phase were subcutaneously inoculated into the right flank of female BEIGE SCID mice at 1.0×10^7/mouse/200 μL (containing 100 μL of matrigel). After 18 days, when the tumor volume of tumor-bearing mice reached about 170 mm^3, the mice were randomly divided into 4 groups of 8 according to tumor volume and body weight: a vehicle control group, a compound I 5 mpk group, a compound I 15 mpk group, and a compound I 45 mpk group. The day of grouping was set as Do, and intragastric administration was started and performed once a day for 28 days. The 28th day post-dose was set as D28 (Table 1). The tumor volume of tumor-bearing mice was measured with a vernier caliper twice a week.
All data were plotted and statistically analyzed using Excel and GraphPad Prism 8 software.
The calculation formula for tumor volume (V) was: V=½×a×b2, where a and b represent length and width, respectively.
Relative tumor proliferation rate T/C (%)=(T−T0)/(C−C0)×100(%), where T and C represent the tumor volumes of the treatment groups and the control group at the end of the experiment; T0 and C0 represent the tumor volumes at the beginning of the experiment.
Tumor growth inhibition rate TGI (%)=1−T/C (%). If TGI (%) exceeds 100%, its specific value will not be shown; instead, it will be represented as >100%. Tumor regression (%)=[(T0−T)/T0]×100(%).

[2] = DVS (dynamic vapor sorption) hygroscopicity test; format: physicochemical
Method: DVS refers to dynamic vapor sorption: Surface Measurement Systems instrinsic was adopted; the humidity started at 50%, the humidity range of the investigation was 0%-95%, and the humidity was increased in increments of 10%; the criterion was that each gradient mass change dM/dT is ≤0.002%, TMAX 360 min, two cycles.

[3] = Influencing factor stability (light, high temperature, high humidity); format: physicochemical
Method: Samples of hydrochloride crystal form I were spread out in open vessels and subjected to 1-month stability tests under light exposure (4500 Lux), high temperature (40° C. and 60° C.), and high humidity (RH 75% and RH 92.5%) conditions.

[4] = Long-term/accelerated stability; format: physicochemical
Method: Hydrochloride crystal form I was left to stand under 25° C./60% RH and 40° C./75% RH conditions to test its stability.

pIC50 (MCF7 cells): 9.23
Number of remaining animals/group ([1]; 5 mpk i.g. qd/28 d): 8/8
Number of remaining animals/group ([1]; 15 mpk i.g. qd/28 d): 8/8
Number of remaining animals/group ([1]; 45 mpk i.g. qd/28 d): 8/8
SMILES: CC(C)C[C@H]1CCc2cc(O)ccc2[C@H]1c1ccc(N2CCC(CN3CCN(c4ccc5c(c4)CN([C@H]4CCC(=O)NC4=O)C5=O)CC3)CC2)cc1 [Compound I, (S)-3-(5-(4-((1-(4-((1R,2R)-6-hydroxy-2-isobutyl-1,2,3,4-tetrahydronaphthalen-1-yl)phenyl)piperidin-4-yl)methyl)piperazin-1-yl)-1-oxoisoindolin-2-yl)piperidine-2,6-dione]
Mean tumor volume D0 ([1]; 5 mpk i.g. qd/28 d): 170.2 mm^3
Mean tumor volume D28 ([1]; 5 mpk i.g. qd/28 d): 305.0 mm^3
TGI (%) D28 ([1]; 5 mpk i.g. qd/28 d): 72%
Mean tumor volume D0 ([1]; 15 mpk i.g. qd/28 d): 168.2 mm^3
Mean tumor volume D28 ([1]; 15 mpk i.g. qd/28 d): 219.7 mm^3
TGI (%) D28 ([1]; 15 mpk i.g. qd/28 d): 89%
Mean tumor volume D0 ([1]; 45 mpk i.g. qd/28 d): 168.6 mm^3
Mean tumor volume D28 ([1]; 45 mpk i.g. qd/28 d): 192.0 mm^3
TGI (%) D28 ([1]; 45 mpk i.g. qd/28 d): 95%

hygroscopic weight gain ([2]; accelerated experimental conditions, 70% RH): about 7.3%
hygroscopic weight gain ([2]; extreme conditions, 90% RH): about 8.9%
hygroscopic weight gain ([2]; normal storage conditions, 25° C. and 60% RH): about 6.3%
crystal form after the DVS tests ([2]; sample re-identified after DVS): its crystal form did not change
Purity % ([3]; 40° C., 7 days, open vessel): 98.6%
Purity % ([3]; 40° C., 14 days, open vessel): 98.4%
Purity % ([3]; 40° C., 30 days, open vessel): 97.9%
Purity % ([3]; 60° C., 7 days, open vessel): 98.2%
Purity % ([3]; 60° C., 14 days, open vessel): 97.6%
Purity % ([3]; 60° C., 30 days, open vessel): 96.8%
Purity % ([3]; 75% RH, 7 days, open vessel): 99.0%
Purity % ([3]; 75% RH, 14 days, open vessel): 98.9%
Purity % ([3]; 75% RH, 30 days, open vessel): 99.0%
Purity % ([3]; 93% RH, 7 days, open vessel): 99.0%
Purity % ([3]; 93% RH, 14 days, open vessel): 98.9%
Purity % ([3]; 93% RH, 30 days, open vessel): 98.7%
Purity % ([3]; 4500 Lux, 7 days, open vessel): 98.6%
Purity % ([3]; 4500 Lux, 14 days, open vessel): 98.1%
Purity % ([3]; 4500 Lux, 30 days, open vessel): 97.8%
Purity % ([3]; Initial, 0 days): 99.0%
physical and chemical stabilities (conclusion) ([3]; standing 1 month under conditions other than the high temperature and light exposure conditions): good physical and chemical stabilities
Purity % ([4]; 25° C./60% RH, 7 days): 99.0%
Purity % ([4]; 25° C./60% RH, 14 days): 99.0%
Purity % ([4]; 25° C./60% RH, 30 days): 99.0%
Purity % ([4]; 25° C./60% RH, 60 days): 99.0%
Purity % ([4]; 40° C./75% RH, 7 days): 99.0%
Purity % ([4]; 40° C./75% RH, 14 days): 99.0%
Purity % ([4]; 40° C./75% RH, 30 days): 99.0%
Purity % ([4]; 40° C./75% RH, 60 days): 98.9%
Purity % ([4]; Initial, 0 days): 99.0%
physical and chemical stabilities (conclusion) ([4]; standing under long-term accelerated conditions for 2 months): good physical and chemical stabilities
SMILES: CC(C)C[C@H]1CCc2cc(O)ccc2[C@H]1c1ccc(N2CCC(CN3CCN(c4ccc5c(c4)CN([C@H]4CCC(=O)NC4=O)C5=O)CC3)CC2)cc1 [hydrochloride crystal form I, (S)-3-(5-(4-((1-(4-((1R,2R)-6-hydroxy-2-isobutyl-1,2,3,4-tetrahydronaphthalen-1-yl)phenyl)piperidin-4-yl)methyl)piperazin-1-yl)-1-oxoisoindolin-2-yl)piperidine-2,6-dione]
